Experimental data: PubChem BioAssay (NCI)
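The concentration for 50% growth inhibition is given as GI50. TGI marks complete inhibition of growth.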

Assays:
Assay in all cases: NCI anticancer screen, dose series, 384-well format
[1] = tested on: A498 renal
[2] = tested on: 786-0 renal
[3] = tested on: A549 NSCLC
[4] = tested on: HCC-2998 colon
[5] = tested on: SK-MEL-5 melanoma
[6] = tested on: MOLT-4 leukemia
[7] = tested on: HOP-92 NSCLC
[8] = tested on: CAKI-1 renal
[9] = tested on: MDA-MB-468 breast
[10] = tested on: HCT-15 colon
[11] = tested on: SW-620 colon
[12] = tested on: OVCAR-5 ovarian
[13] = tested on: RXF 393 renal
[14] = tested on: NCI-H522 lung
[15] = tested on: MALME-3M melanoma
[16] = tested on: MDA-MB-231 breast
[17] = tested on: DU-145 prostate
[18] = tested on: HS 578T breast
[19] = tested on: NCI-H460 NSCLC
[20] = tested on: SK-MEL-2 melanoma
[21] = tested on: IGROV1 ovarian
[22] = tested on: UACC-62 melanoma
[23] = tested on: RPMI-8226 leukemia
[24] = tested on: NCI-H322M lung
[25] = tested on: MCF7 breast
[26] = tested on: CCRF-CEM leukemia
[27] = tested on: SN12C renal
[28] = tested on: COLO 205 colon
[29] = tested on: UACC-257 melanoma
[30] = tested on: U251 glioblastoma
[31] = tested on: KM12 colon
[32] = tested on: OVCAR-4 ovarian
[33] = tested on: HOP-62 NSCLC
[34] = tested on: SNB-75 CNS
[35] = tested on: K-562 leukemia
[36] = tested on: ACHN renal
[37] = tested on: MDA-MB-435 melanoma
[38] = tested on: SK-MEL-28 melanoma
[39] = tested on: SR leukemia
[40] = tested on: OVCAR-8 ovarian
[41] = tested on: SF-295 CNS
[42] = tested on: OVCAR-3 ovarian
[43] = tested on: EKVX NSCLC
[44] = tested on: SF-539 CNS
[45] = tested on: NCI-H226 lung
[46] = tested on: PC-3 prostate
[47] = tested on: HCT-116 colon
[48] = tested on: LOX IMVI melanoma
[49] = tested on: NCI/ADR-RES ovarian
[50] = tested on: BT-549 breast
[51] = tested on: NCI-H23 lung
[52] = tested on: UO-31 renal
[53] = tested on: TK-10 renal
[54] = tested on: T-47D breast
[55] = tested on: SK-OV-3 ovarian
[56] = tested on: SNB-19 CNS
[57] = tested on: SF-268 CNS
[58] = tested on: HT29 colon
[59] = tested on: HL-60(TB) leukemia
[60] = tested on: M14 melanoma

O=C(c1ccc(F)c(F)c1Nc1ccc(I)cc1F)N1CC(O)([C@@H]2CCCCN2)C1
GI50 [1]: 0.472 µM | TGI [1]: 2.95 µM | GI50 [2]: 1.52 µM | TGI [2]: 5 µM | GI50 [3]: 0.0975 µM | TGI [3]: 2.73 µM | GI50 [4]: 0.0102 µM | TGI [4]: 0.077 µM | GI50 [5]: < 0.01 µM | TGI [5]: 0.0703 µM | GI50 [6]: 2.02 µM | TGI [6]: 4.83 µM | GI50 [7]: 0.153 µM | TGI [7]: 0.599 µM | GI50 [8]: 0.565 µM | TGI [8]: 10.4 µM | GI50 [9]: 3.89 µM | TGI [9]: 9.32 µM | GI50 [10]: 1.25 µM | TGI [10]: 9.73 µM | GI50 [11]: 0.0417 µM | TGI [11]: 5.83 µM | GI50 [12]: 0.126 µM | TGI [12]: 7.96 µM | GI50 [13]: 0.725 µM | TGI [13]: 2.58 µM | GI50 [14]: 2.6 µM | TGI [14]: 17.3 µM | GI50 [15]: < 0.01 µM | GI50 [16]: 0.172 µM | TGI [16]: 1.36 µM | GI50 [17]: 1.25 µM | TGI [17]: 15.5 µM | GI50 [18]: 4.74 µM | TGI [18]: 15.9 µM | GI50 [19]: 1.27 µM | TGI [19]: 5.74 µM | GI50 [20]: 0.0182 µM | TGI [20]: 0.0529 µM | GI50 [21]: 0.12 µM | TGI [21]: 4.51 µM | GI50 [22]: < 0.01 µM | TGI [22]: 0.161 µM | GI50 [23]: 1.05 µM | TGI [23]: 5.22 µM | GI50 [24]: 0.217 µM | TGI [24]: 6.61 µM | GI50 [25]: 3.55 µM | TGI [25]: 7.29 µM | GI50 [26]: 3.35 µM | TGI [26]: 7.67 µM | GI50 [27]: 0.645 µM | TGI [27]: 16 µM | GI50 [28]: < 0.01 µM | TGI [28]: 0.0274 µM | GI50 [29]: < 0.01 µM | TGI [29]: 0.0268 µM | GI50 [30]: 0.82 µM | TGI [30]: 8.28 µM | GI50 [31]: 0.136 µM | TGI [31]: 6.91 µM | GI50 [32]: 2.7 µM | TGI [32]: 12.4 µM | GI50 [33]: 0.403 µM | TGI [33]: 13.5 µM | GI50 [34]: 1.39 µM | TGI [34]: 6.7 µM | GI50 [35]: 0.284 µM | TGI [35]: 1.47 µM | GI50 [36]: 1.49 µM | TGI [36]: 12.2 µM | GI50 [37]: < 0.01 µM | TGI [37]: 15.8 µM | GI50 [38]: < 0.01 µM | TGI [38]: 0.0163 µM | GI50 [39]: 1.07 µM | TGI [39]: 2.33 µM | GI50 [40]: 3.86 µM | TGI [40]: 10.5 µM | GI50 [41]: 6.2 µM | TGI [41]: 12.2 µM | GI50 [42]: 5.55 µM | TGI [42]: 17.2 µM | GI50 [43]: 1.34 µM | TGI [43]: 14.2 µM | GI50 [44]: 0.969 µM | TGI [44]: 7.01 µM | GI50 [45]: 0.23 µM | TGI [45]: 6.32 µM | GI50 [46]: 7.65 µM | TGI [46]: 19.8 µM | GI50 [47]: 0.0703 µM | TGI [47]: 0.834 µM | TGI [48]: 0.527 µM | GI50 [49]: 3.42 µM | TGI [49]: 16.1 µM | GI50 [50]: 1.4 µM | TGI [50]: 9.16 µM | GI50 [51]: 0.0505 µM | TGI [51]: 0.708 µM | GI50 [52]: 0.297 µM | TGI [52]: 3.77 µM | GI50 [53]: 0.956 µM | TGI [53]: 10.9 µM | GI50 [54]: 4.79 µM | TGI [54]: 12.5 µM | GI50 [55]: 5.11 µM | TGI [55]: 18.6 µM | GI50 [56]: 5.49 µM | TGI [56]: 18.5 µM | GI50 [57]: 8.35 µM | TGI [57]: 20.5 µM | GI50 [58]: 0.0101 µM | TGI [58]: 4.24 µM | GI50 [59]: 0.0101 µM | TGI [59]: 0.375 µM | GI50 [60]: < 0.01 µM | TGI [60]: 0.0146 µM
